Assays:
[1] = tested on: selected strain Eubacterium limosum; assay: Fed batch fermentation of IX with selected Eubacterium limosum strain; format: in vitro ADME; details: fermentor effluent
Experimental: A fed batch fermentation experiment was designed to use a selected strain Eubacterium limosum as obtained above, to convert methylated prenylflavonoids in a fermentation setting. Fermentation was performed in a Braun Biostat® M fermentor (2 l vessel), filled with 1.5 L Brain Heart Infusion broth (with 0.5 g/l cystein-HCl). Subsequently, the fermentor was sterilized by autoclaving it for 30 min at 121° C. Before inoculation, the fermentor was made anaerobic by flushing the system for 1 h with nitrogen gas. After this, the fermentor was inoculated with a 2-days old E. limosum culture and 25 mg/L IX was added to the fermentation liquid. The fermentation was performed at 37° C. for 2 weeks, without pH control. From day 1 on, three times/day 200 ml anaerobic Brain Heart Infusion broth (with 0.5 g/l cystein-HCl), containing 25 mg/L IX was dosed to the reactor at 10 ml/min and simultaneously […] fermentor content was removed from the system. A 10 ml sample was taken from the effluent, for chemical analysis. This was done at day 0, 1, 2 and afterwards every 2 days. Data were as % conversion (8-PN/(IX+8-PN)). A conversion of 0% (day 0), 43% (day 1) and 100% (day 2 and following days), of IX into 8-PN was obtained.

[2] = tested on: intestinal microbial communities PF+ and PF−; assay: Simulator of the Human Intestinal Microbial Ecosystem (SHIME) dosed with IX; format: in vitro ADME
Text: The SHIME consists of a succession of five reactors that represent the different parts of the human gastrointestinal tract. The first two reactors (stomach [reactor 1] and small intestine [reactor 2]) are of the fill-and-draw principle to simulate different steps in food uptake and digestion, with peristaltic pumps adding a defined amount of SHIME feed (3 times/day) and pancreatic and bile liquid to the stomach and duodenum compartment and emptying the respective reactors after specified intervals. The last three compartments (resp. ascending [reactor 3], transverse [reactor 4] and descending colon [reactor 5]) are continuously stirred reactors with constant volume and pH control. Retention time and pH of the different vessels were chosen in order to resemble in vivo conditions in the different parts of the gastrointestinal tract. The passage of food in the small intestine was simulated in reactor 2 by the addition of 60 ml artificial pancreatic and bile liquid, pancreatin and NaHCO3. The temperature of the system was kept at 37° C. by a thermostat and the system was kept anaerobic by flushing it with N2 for 15 min every day. Inoculum was prepared from faecal matter as described in De Boever et al. (2000) J. Nutrition 130, 2599-2606. Reactor 3, 4, and 5 were filled with nutritional medium and pH was adjusted to the respective pH range. Finally, 50 ml inoculum was added to the last three reactors.
For the present experiment, two of the above described systems were combined as two completely separate reactors, which are driven by the same pumps (pumps with two pump heads, allowing to dose exactly the same amounts of liquids to both systems), have identical pH and temperature control and which receive the same liquid food. This way, all parameters are perfectly controlled and identical, except for the intestinal microbial communities in the 2 systems which can be introduced separately. In this case we introduced a community which was capable to activate methylated prenylflavonoids (PF+) and one which could not (PF−). After a two-week stabilization period in which normal SHIME feed was dosed, 25 mg/L IX was dosed to the SHIME feed for 4 weeks (day 15-44). In the last two weeks the selected Eubacterium limosum strain of example 2, was also administered to the first colon compartment, to simulate the application of the strain as a probiotic (day 30-44).

[3] = Incubation of IX and 8-PN with Eubacterium limosum for 13 days; format: in vitro ADME; details: Eubacterium limosum, Eubacterium limosum ATCC 8486 culture; E. limosum, 25 mg/l substrate, 13 days anaerobic; average (stdev) molar percentage
Experimental: Eubacterium limosum ATCC 8486 and Peptostreptococcus productus ATCC 27340 were obtained from the German Collection of Microorganisms and Cell Cultures (DSMZ, Braunschweig, Germany). E. limosum was incubated for 13 days in Brain Heart Infusion broth (with 0.5 g/l cystein-HCl) with 25 mg/l of IX and 8-PN under anaerobic conditions (Table 2). This strain was able to convert IX into 8-PN. […] This feature is clearly different from the metabolic pathway as observed in liver microsomes wherein 8-PN is extensively further metabolised [Nikolic et al. (2005) J. of Mass Spectrom. 40, 289-299; Nikolic et al. (2004) Drug Metabolism and Disposition 32, 272-279].

[4] = tested on: fecal culture B supplemented with E. limosum; assay: Supplementation of selected E. limosum strain to non-converting fecal culture B incubated with IX; format: in vitro ADME, human
Experimental: The most efficient E. limosum strain, obtained from the selection experiment in example 2, was supplemented to the originally non-converting culture B of example 1, to examine the capacity of this strain to initiate the production of 8-PN in the complex environment of a fecal suspension. The strain was added to the culture in proportions ranging from 0% up to 100% (v/v). This mixture was incubated with 10% (v/v) of 25 mg/L IX for a period of seven days in Brain Heart Infusion broth (with 0.5 g/l cystein-HCl) under anaerobic conditions. The concentration of 8-PN was monitored every two days (FIG. 7).

COc1cc(O)c(CC=C(C)C)c2c1C(=O)C[C@@H](c1ccc(O)cc1)O2 [IX, 5-O-methyl-8-prenylnaringenin]
% conversion (8-PN/(IX+8-PN)) ([1]; day 0): 0%
% conversion (8-PN/(IX+8-PN)) ([1]; day 1): 43%
% conversion (8-PN/(IX+8-PN)) ([1]; day 2 and following days): 100%
Conversion of IX into 8-PN ([2]; PF+ compartment, after supplementing the E. limosum strain (from day 30)): the activation potential increased
Conversion of IX into 8-PN ([2]; PF+ compartment, only IX administered (day 15-30)): activation of methoxylated prenylflavonoids was noted in the distal colon parts
Conversion of IX into 8-PN ([2]; PF− compartment, after supplementing the E. limosum strain (from day 30)): production of the estrogenically active 8-PN was detected in the distal colon part
Conversion of IX into 8-PN ([2]; PF− compartment, only IX administered (day 15-30)): no conversion occurred
recovery at 13 days, 25 mg/l [3]: 51.4%
Conversion of IX into 8-PN ([4]; 1% supplementation of E. limosum, after one day): half of the dosed IX was already transformed into 8-PN
Conversion of IX into 8-PN ([4]; equal amount of E. limosum culture and fecal sample (100% in FIG. 7)): complete conversion of IX into 8-PN
